Source: patent US9637453B2, “3-spirocyclic-6-hydroxamic acid tetralins as HDAC inhibitors” (Forma Therapeutics, Inc., priority 2015, dated 2017)

Legend:
[1] = molecular target: T1, Full length human recombinant HDAC6 (Homo sapiens, UniProt Q9UBN7); test: In vitro histone deacetylase assay, enzymatic HDAC6 (electrophoretic mobility shift assay); type: biochemical; details: 1 nM HDAC6; 2 μM peptide substrate FAM-RHKK(Ac)—NH2; 25° C.; 12 concentrations; read-out: HDAC6 Activity Range (IC50)
T1 construct: Full length human recombinant HDAC6 and HDAC11 proteins were expressed in baculoviral system
T1 sequence (Q9UBN7 1-1215): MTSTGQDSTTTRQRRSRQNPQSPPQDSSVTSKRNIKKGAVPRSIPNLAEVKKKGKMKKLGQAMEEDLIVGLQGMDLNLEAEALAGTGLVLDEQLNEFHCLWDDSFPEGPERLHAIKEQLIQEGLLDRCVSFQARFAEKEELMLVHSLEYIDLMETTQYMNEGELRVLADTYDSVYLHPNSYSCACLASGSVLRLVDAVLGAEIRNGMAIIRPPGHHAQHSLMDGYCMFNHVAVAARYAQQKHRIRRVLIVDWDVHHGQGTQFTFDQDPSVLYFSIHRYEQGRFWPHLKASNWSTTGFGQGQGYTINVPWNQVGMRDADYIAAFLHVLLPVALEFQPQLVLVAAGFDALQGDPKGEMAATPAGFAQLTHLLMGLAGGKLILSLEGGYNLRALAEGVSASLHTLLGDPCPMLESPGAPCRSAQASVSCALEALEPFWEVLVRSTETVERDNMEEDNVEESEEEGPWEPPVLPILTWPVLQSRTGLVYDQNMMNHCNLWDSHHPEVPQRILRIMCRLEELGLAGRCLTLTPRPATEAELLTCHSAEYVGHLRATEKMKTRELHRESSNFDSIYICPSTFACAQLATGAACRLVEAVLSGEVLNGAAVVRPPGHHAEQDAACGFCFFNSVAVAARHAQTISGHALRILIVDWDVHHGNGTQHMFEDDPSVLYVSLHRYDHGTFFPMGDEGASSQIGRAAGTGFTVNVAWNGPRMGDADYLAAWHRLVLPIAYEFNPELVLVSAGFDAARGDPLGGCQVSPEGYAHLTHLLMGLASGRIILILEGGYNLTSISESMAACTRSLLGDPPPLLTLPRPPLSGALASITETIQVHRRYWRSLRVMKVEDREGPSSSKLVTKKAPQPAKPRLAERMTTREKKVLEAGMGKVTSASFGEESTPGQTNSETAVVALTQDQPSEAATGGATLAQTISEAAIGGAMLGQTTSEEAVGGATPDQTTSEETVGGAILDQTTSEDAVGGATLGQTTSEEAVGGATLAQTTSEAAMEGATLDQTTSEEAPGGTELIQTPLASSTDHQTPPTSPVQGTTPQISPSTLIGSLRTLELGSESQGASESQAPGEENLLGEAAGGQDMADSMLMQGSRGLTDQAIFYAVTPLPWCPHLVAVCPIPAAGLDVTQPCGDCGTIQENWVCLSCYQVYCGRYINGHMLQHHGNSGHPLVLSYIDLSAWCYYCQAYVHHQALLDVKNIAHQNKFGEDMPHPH
In short: (§1)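 Baculovirus-expressed full-length enzymes (HDAC6 1 nM, FAM-RHKK(Ac)-NH2; HDAC11 10 nM, FAM-RHKK(tri-fluor-Ac)-NH2), 2 μM substrate, HEPES pH 7.5, 25°C, 12-point 3× dilutions. Product/substrate separated by microfluidic mobility shift after SDS quench; IC50 from 4-parameter fit, reported as +/++/+++ bins.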

[2] = molecular target: T2, Full length human recombinant HDAC11 (Homo sapiens, UniProt Q96DB2); test: In vitro histone deacetylase assay, enzymatic HDAC11 (electrophoretic mobility shift assay); type: biochemical; details: 10 nM HDAC11; 2 μM peptide substrate FAM-RHKK(tri-fluor-Ac)—NH2; 25° C.; 12 concentrations; read-out: HDAC11 Activity Range (IC50)
T2 construct: Full length human recombinant HDAC6 and HDAC11 proteins were expressed in baculoviral system
T2 sequence (Q96DB2 1-347): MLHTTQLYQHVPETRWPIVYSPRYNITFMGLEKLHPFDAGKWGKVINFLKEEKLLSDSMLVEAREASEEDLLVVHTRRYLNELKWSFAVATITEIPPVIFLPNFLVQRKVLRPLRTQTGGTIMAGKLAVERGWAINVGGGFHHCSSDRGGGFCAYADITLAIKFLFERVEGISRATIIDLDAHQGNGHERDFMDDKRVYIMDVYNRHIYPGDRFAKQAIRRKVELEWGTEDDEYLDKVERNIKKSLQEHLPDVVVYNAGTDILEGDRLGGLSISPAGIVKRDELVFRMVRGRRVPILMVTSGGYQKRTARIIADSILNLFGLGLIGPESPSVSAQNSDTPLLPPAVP
In short: as §1

Compound | IC50 [1] [nM] | IC50 [2] [nM]
O=C(NO)c1ccc2c(c1)C[C@]1(CC2)CC(=O)N(CC2COC2)C1 [Compound I-146, (R)—N-hydroxy-1′-(oxetan-3-ylmethyl)-5′-oxo-3,4-dihydro-H-spiro[naphthalene-2,3′-pyrrolidine]-7-carboxamide] | ≤ 100 | > 500
O=C(NO)c1ccc2c(c1)C[C@@]1(CC2)CC(=O)N(CC2COC2)C1 [Compound I-147, (S)—N-hydroxy-1′-(oxetan-3-ylmethyl)-5′-oxo-3,4-dihydro-1H-spiro[naphthalene-2,3′-pyrrolidine]-7-carboxamide] | ≤ 100 | > 500
O=C(NO)c1ccc2c(c1)C[C@]1(CC2)CC(=O)N(C2CC2)C1 [Compound I-148, (R)-1′-cyclopropyl-N-hydroxy-5′-oxo-3,4-dihydro-H-spiro[naphthalene-2,3′-pyrrolidine]-7-carboxamide] | ≤ 100 | > 500
O=C(NO)c1ccc2c(c1)C[C@]1(CC2)CC(=O)N(CC(F)(F)F)C1 [Compound I-149, (R)—N-hydroxy-5′-oxo-1′-(2,2,2-trifluoroethyl)-3,4-dihydro-1H-spiro[naphthalene-2,3′-pyrrolidine]-7-carboxamide] | ≤ 100 | > 500

Results, then the compound that gave them:

IC50 [1] [nM] | IC50 [2] [nM] | Compound
≤ 100 | > 500 | COc1ccc(C(=O)N2CCC3(CCc4ccc(C(=O)NO)cc4O3)CC2)cc1 [II-1, N-hydroxy-1′-(4-methoxybenzoyl)spiro[chroman-2,4′-piperidine]-7-carboxamide]
≤ 100 | > 500 | COc1ccc(S(=O)(=O)N2CCC3(CCc4ccc(C(=O)NO)cc4O3)CC2)cc1 [II-2, N-hydroxy-1′-((4-methoxyphenyl)sulfonyl)spiro[chromane-2,4′-piperidine]-7-carboxamide]
≤ 100 | ≤ 100 | O=C(NO)c1ccc2c(c1)OC1(CC2)CCN(S(=O)(=O)C2CCCCC2)CC1 [II-3, 1′-(cyclohexylsulfonyl)-N-hydroxyspiro[chromane-2,4′-piperidine]-7-carboxamide]
≤ 100 | > 500 | O=C(NO)c1ccc2c(c1)OC1(CC2)CCN(C(=O)Nc2ccccc2)CC1 [II-4, N7-hydroxy-N1′-phenylspiro[chroman-2,4′-piperidine]-1′,7-dicarboxamide]
≤ 100 | 100 to 500 | O=C(NO)c1ccc2c(c1)OC1(CC2)CCN(C(=O)C2CCCCC2)CC1 [II-5, 1′-(cyclohexanecarbonyl)-N-hydroxyspiro[chromane-2,4′-piperidine]-7-carboxamide]
100 to 500 | ≤ 100 | O=C(NO)c1ccc2c(c1)OC1(CC2)CCN(C2CCCCC2)CC1 [II-6, 1′-cyclohexyl-N-hydroxyspiro[chroman-2,4′-piperidine]-7-carboxamide]
> 500 | > 500 | COc1ccc(CN2CCC3(CCc4ccc(C(=O)NO)cc4O3)CC2)cc1 [II-7, N-hydroxy-1′-(4-methoxybenzyl)spiro[chromane-2,4′-piperidine]-7-carboxamide]
